Measured values: ChEMBL document CHEMBL1153608, “Synthesis, antimalarial evaluation and molecular modeling studies of hydroxyethylpiperazines, potential aspartyl protease inhibitors, part 2” (Eur J Med Chem, 2009)

What was measured:
Plasmodium falciparum [1] = assay: Antimalarial activity against Plasmodium falciparum W2 by [3H]hypoxanthine uptake; format: functional, organism-based
[2] = Cytotoxicity against mouse J774 cells assessed as cell viability at 0.1 ug/mL after 24 hrs by MTT assay; format: cell-based; details: read-out: Activity
[3] = Cytotoxicity against mouse J774 cells assessed as cell viability at 1 ug/mL after 24 hrs by MTT assay; format: cell-based; details: read-out: Activity
[4] = Cytotoxicity against mouse J774 cells assessed as cell viability at 10 ug/mL after 24 hrs by MTT assay; format: cell-based; details: read-out: Activity
[5] = Cytotoxicity against mouse J774 cells assessed as cell viability at 100 ug/mL after 24 hrs by MTT assay; format: cell-based; details: read-out: Activity
Plasmodium falciparum [6] = assay: Antimalarial activity against chloroquine-sensitive Plasmodium falciparum 3D7 by [3H]hypoxanthine uptake; format: functional, organism-based

SMILES	IC50 (Plasmodium falciparum [1]) [µM]	viability at 24 h, 0.1 ug/mL [2] [%]	viability at 24 h, 1 ug/mL [3] [%]	viability at 24 h, 10 ug/mL [4] [%]	viability at 24 h, 100 ug/mL [5] [%]	IC50 (Plasmodium falciparum [6]) [µM]
Cc1ccc(S(=O)(=O)N[C@@H](Cc2ccccc2)[C@H](O)CN2CCN(Cc3ccc([N+](=O)[O-])cc3)CC2)cc1	> 90	91	100	93	92	
Nc1ccc(S(=O)(=O)N[C@@H](Cc2ccccc2)[C@H](O)CN2CCN(Cc3ccc4c(c3)OCO4)CC2)cc1	4.8	100	100	99	55	4.6
Cc1ccc(S(=O)(=O)N[C@@H](Cc2ccccc2)[C@H](O)CN2CCN(Cc3ccccc3)CC2)cc1	> 90	100	86	88	5	
O=C(N[C@@H](Cc1ccccc1)[C@H](O)CN1CCN(Cc2ccc3c(c2)OCO3)CC1)c1c(Cl)cccc1Cl	55.5	100	90	84	43	
O=C(N[C@@H](Cc1ccccc1)[C@H](O)CN1CCN(Cc2ccc3c(c2)OCO3)CC1)c1ccccc1	69.4	100	100	91	38	
Cc1ccc(S(=O)(=O)N[C@@H](Cc2ccccc2)[C@H](O)CN2CCN(Cc3ccc(N)cc3)CC2)cc1	> 90	100	90	77	10	
O=C(N[C@@H](Cc1ccccc1)[C@H](O)CN1CCN(Cc2ccc3c(c2)OCO3)CC1)c1c(F)cccc1F	47.4	85	87	83	51	
COc1ccc(CN2CCN(C[C@@H](O)[C@H](Cc3ccccc3)NS(=O)(=O)c3ccc(C)cc3)CC2)cc1OC	> 90	100	100	92	9	
COc1ccc(CN2CCN(C[C@@H](O)[C@H](Cc3ccccc3)NS(=O)(=O)c3ccc(C)cc3)CC2)cc1	> 90	100	90	84	6	

Second part, led by results:

IC50 (Plasmodium falciparum [1]) [µM]	SMILES	viability at 24 h, 0.1 ug/mL [2] [%]	viability at 24 h, 1 ug/mL [3] [%]	viability at 24 h, 10 ug/mL [4] [%]	viability at 24 h, 100 ug/mL [5] [%]	IC50 (Plasmodium falciparum [6]) [µM]
44	O=[N+]([O-])c1ccc(S(=O)(=O)N[C@@H](Cc2ccccc2)[C@H](O)CN2CCN(Cc3ccc4c(c3)OCO4)CC2)cc1	100	100	100	40	
35.1	Cc1ccc(S(=O)(=O)N[C@@H](Cc2ccccc2)[C@H](O)CN2CCN(Cc3ccc(Cl)cc3)CC2)cc1	100	98	90	22	
25.4	O=C(N[C@@H](Cc1ccccc1)[C@H](O)CN1CCN(Cc2ccc3c(c2)OCO3)CC1)c1ccc2c(c1)OCO2	100	100	95	61	
43	Cc1ccc(S(=O)(=O)N[C@@H](Cc2ccccc2)[C@H](O)CN2CCN(Cc3ccc(F)cc3)CC2)cc1	100	100	92	15	
5.9	Cc1c(O)cccc1C(=O)N[C@@H](Cc1ccccc1)[C@H](O)CN1CCN(Cc2ccc3c(c2)OCO3)CC1	100	75	8	8	
34.3	COc1ccc(S(=O)(=O)N[C@@H](Cc2ccccc2)[C@H](O)CN2CCN(Cc3ccc4c(c3)OCO4)CC2)cc1	100	99	90	12	
5.6	O=S(=O)(N[C@@H](Cc1ccccc1)[C@H](O)CN1CCN(Cc2ccc3c(c2)OCO3)CC1)c1ccc(Br)cc1	100	100	96	5	5.7
47.2	O=C(N[C@@H](Cc1ccccc1)[C@H](O)CN1CCN(Cc2ccc3c(c2)OCO3)CC1)c1cc(Cl)cc(Cl)c1	98	100	98	93	
42.5	O=S(=O)(N[C@@H](Cc1ccccc1)[C@H](O)CN1CCN(Cc2ccc3c(c2)OCO3)CC1)c1ccc(F)cc1	100	94	83	4	
16.9	Cc1ccc(S(=O)(=O)N[C@@H](Cc2ccccc2)[C@H](O)CN2CCN(Cc3ccc4c(c3)OCO4)CC2)cc1	100	100	98	49	
